The values below come from PMC8588536, “Iridal-Type Triterpenoids Displaying Human Neutrophil Elastase Inhibition and Anti-Inflammatory Effects from Belamcanda chinensis” (Molecules, 2021).

“Also recorded” adds a separate entry of the source.

Common to all, as to type: cell-based, mouse
Series [1] concerns NO production in LPS-stimulated RAW264.7 cells. Put plainly: Nitrite levels (NO production), Griess method. As to conditions: 1 or 3 µg/mL 2 h prior to LPS 1 µg/mL for 16 h; p < 0.05. How it is done: Nitrite levels were determined using the Griess method, as described previously (Jeong et al., 2016). Briefly, RAW264.7 cells (5 × 10^4 cells/well) were cultured in a 24-well plate. The cells were pretreated with triterpenoids (1 or 3 µg/mL) 2 h prior to lipopolysaccharides (LPS, 1 µg/mL) treatment for 16 h. Supernatants were collected and centrifuged at 2451× g for 10 min. The (50 μL) of supernatants were mixed with equal volumes of Griess reagent (1% sulfanilamide, 0.1% n-l-naphthylethy-lenediamine dihydrochloride, and 2% phosphoric acid), and incubated for 10 min. The optical density was measured at 550 nm, and the nitrite levels were calculated from a standard curve generated from sodium nitrite.

Series [2] relates to NF-κB p65 in LPS-stimulated RAW264.7 cells. The series is described as follows: NF-κB nuclear translocation, immunocytochemistry. As to conditions: pre-treatment 2 h prior to LPS 1 µg/mL for 16 h. Here is the method: RAW264.7 cells cultured on round cover slips coated with poly-L-lysine were treated with triterpenoids (1 or 3 µg/mL) 2 h prior to LPS treatment, followed by LPS (1 µg/mL) for 16 h. The cells were washed with 1 x phosphate buffered saline (PBS) and fixed with 4% paraformaldehyde for 30 min. After washing the fixed cells with PBS, the cells were permeabilized with a blocking buffer (1% normal goat serum and 0.2% Triton X-100 in PBS) for 30 min at room temperature, and were incubated with an anti-NF-κB p65 antibody (1:200 dilution, Cell Signaling Technology, Danvers, MA, USA) at 4 °C overnight. After three washes in PBS, the cells were incubated in the dark for 1 h with the mixture of FITC-conjugated anti-rabbit IgG fluorescent secondary antibody diluted at 1:500 in PBS. Finally, the cells were stained with 2 µg/mL Hoechst for nuclei staining. The cells were washed with PBS, wet-mounted on glass slides, and observed using a confocal laser-scanning microscope (Olympus, Tokyo, Japan). The negative control (NC) was analyzed by omitting the primary antibody.

The subject of series [3] is iNOS mRNA in LPS-stimulated RAW264.7 cells. Put plainly: iNOS mRNA expression by RT-PCR. As to conditions: 1 or 3 µg/mL, LPS 1 µg/mL; n = 5, p < 0.05. How it is done:
(§1) Total RNA was isolated from cultured RAW264.7 cells using TRIzol reagent (Ambion®, Carlsbad, CA, USA) according to the manufacturer’s instructions. First strand cDNA was synthesized from the total RNA (3 μg) using oligo dT (DiaStar RT Kit, SolGent, Daejeon, Korea) and was used as a template for PCR amplification with G-Taq polymerase (Cosmogenetech, Seoul, Korea). The first-strand cDNA was quantified using a spectrophotometer (NanoDrop® ND-1000, NanoDrop Technologies, Wilmington, […], USA). The quantified cDNA was used as a template. PCR assay was performed with specific primers for inducible nitric oxide (iNOS), IL-1β, and TNF-α. The PCR steps included initial denaturation at 94 °C for 5 min, then 28 cycles at 94 °C for 30 s, 57 °C for 30 s, and 72 °C for 30 s, and a final extension step at 72 °C for 10 min. The amplified PCR products were separated in 1.5% agarose gel, and the gel was stained with ethidium bromide. The bands were visualized using the iBright^TM CL1500 imaging system (Thermo Scientific Fisher/Life Technologies Holdings Pte Ltd., Singapore). The DNA fragments were directly sequenced with the ABI PRISM® 3100-Avant Genetic Analyzer (Applied Biosystems, Carlsbad, CA, USA).

Series [4] relates to RAW264.7 cells. Put plainly: MTT cell viability assay. As to conditions: 10 µg/mL, 24 h. How it is done:
The mouse macrophage cell line RAW264.7 was obtained from the American Type Culture Collection (ATCC, Manassas, VA, USA). The cells were cultured in DMEM supplemented with 10% fetal bovine serum (FBS), penicillin (100 U/mL), and streptomycin (100 μg/mL) at 37 °C with 5% CO2. The medium was replaced every 2 days. After treatment with chemicals, the cell morphological changes were observed under a microscope and images are captured before cell viability assay.
Cell viability was determined calorimetrically using a 3-(4,5-dimethylthiazole-2-yl)-2,5-diphenyl tetrazolium bromide (MTT) reagent (5 mg/mL in phosphate buffered saline (PBS), Duchefa Biochemie, Haarlem, The Netherlands). The MTT assay procedures were performed as described previously. Briefly, a 24-well plate (5 × 10^4 cells/well) was seeded with RAW264.7, a mouse macrophage cell line. After 24 h of chemical treatment, each well was filled with 20 µL of 5 mg/mL MTT solution (0.1 mg/mL) and incubated for 4 h. After aspirating the supernatants, the formazan crystals in each well were dissolved in 200 µL of dimethyl sulfoxide (DMSO) for 30 min at 37 °C, and the 24-well plates were read at 570 nm with a microplate reader (Bio-Rad, Hercules, CA, USA). Data are expressed as a percentage of viable cells compared with the control.
Background: Tetrazolium assays rely on reduction of a dye to a coloured formazan, in cell work by metabolically active cells.

Series [5] relates to TNF-α mRNA in LPS-stimulated RAW264.7 cells. The series is described as follows: TNF-α mRNA expression by RT-PCR. As to conditions: 1 or 3 µg/mL, n = 6, p < 0.05. Here is the method:
as §1

Series [6] relates to NF-κB p65 in LPS-stimulated RAW264.7 cells. Put plainly: NF-κB p65 nuclear translocation, Western blot of nuclear and cytoplasmic fractions. As to conditions: 1 and 3 µg/mL, n = 3, p < 0.05. How it is done:
RAW264.7 cells were homogenized in a hypotonic lysis buffer and centrifuged at 142× g for 5 min at 4 °C. The resulting pellets and supernatants were used for the isolation of nuclear and cytosoplasmic fraction, respectively. The pellets were incubated on ice for 5 min with a nuclear isolation buffer and were spun at 142× g using Eppendorf centrifuge 5424 R at 4 °C for 5 min. The resulting pellets were incubated on ice for 30 min with 2% Triton nuclear isolation buffer and were spun at 12,448× g at 4 °C for 15 min. For the cytosolic fraction, the resulting supernatants in the hypotonic lysis buffer were transferred to a new 1.5 mL tube and spun at 15,401× g for 15 min at 4 °C. The resulting supernatants were centrifuged at 100,000× g at 4 °C for 60 min in an ultracentrifuge (TLA 100.3; Optima MAX-XP, Beckman Coulter, Inc., Brea, CA, USA). The proteins of nuclear and cytosolic fractions were separated on 8% SDS-PAGE gel and blotted onto polyvinylidene difluoride membranes. Equal amounts of 35 µg were analyzed by Western blotting. Briefly, the membranes were blocked with 5% fat-free dry milk and then incubated with the anti-NF-κB p65 polyclonal antibody (1:1000 dilution; Cell Signaling Technology), and anti-β-actin monoclonal antibodies (1:5000 dilution). […]
For orientation: A western blot detects proteins with antibodies after separation by electrophoresis.

In the case of `CC(C)=CCC/C(C)=C/C[C@@H](O)/C(C)=C/CC[C@@]1(C)[C@H](CCCO)/C(=C(/C)C=O)CC[C@]1(C)O` [Compound 1, isoiridogermanal], in series [1], the “LPS-induced NO production” value is “significantly reduced”. In addition, the “NF-κB translocation to the nucleus (immunocytochemical staining)” value in series [2] is recorded as “suppressed”. Besides, the “LPS-induced iNOS mRNA upregulation” value in series [3] is “significantly reduced”. For the same compound, the “reduction of cell viability” value in series [4] amounted to 28.8 ± 4.4%. Moreover, the “LPS-upregulated TNF-α mRNA level” value in series [5] was “noticeably decreased”.
In the case of `CC(C)=CCCC(C)=CCC(O)C(C)=CCCC1(C)C(CCCO)C(=C(C)C=O)CCC1(C)O` (centres unmarked) [Compound 2, iridobelamal A], in series [1], the “LPS-induced NO production” value is “significantly reduced; also recorded: dose-dependent inhibition”. For the same compound, the “nuclear translocation of p65 protein (Western blot)” value in series [6] is “inhibited”. Moreover, in series [2], the “NF-κB translocation to the nucleus (immunocytochemical staining)” value was “suppressed”. For the same compound, in series [3], the “LPS-induced iNOS mRNA upregulation” value is recorded as “significantly reduced”. In series [4], the “reduction of cell viability” value was determined as 23.4 ± 5.1%. In series [5], the “LPS-upregulated TNF-α mRNA level” value is listed as “noticeably decreased”.
